Measurements from patent publication US10973868B2, “Composition for topical use based on a carnosine-magnesium complex” (Outplay Inc., priority 2016, dated 2021).
Read-outs that look alike come from different tables or passages of the source.

Experiments:
[1] = aqueous solution; cited from earlier work
mice = details: cited from earlier work
[2] = tested on: muscle fibres of Rana Temporaria; details: 15 mM of carnosine; cited from earlier work
[3] = tested on: rat extensor digitorum longus muscle fibres; details: mechanically skinned fibres; cited from earlier work
[4] = tested on: adults with chronic schizophrenia; assay: L-carnosine adjunctive treatment in chronic schizophrenia, strategic target detection test; format: in vivo, human; details: 2 g/day adjunctive, 3 months, vs placebo
Text: Improved Cognition In Schizophrenia: Targeting glutamatergic dysfunction provides an exciting opportunity to improve cognitive impairment in schizophrenia. One treatment approach has targeted inadequate antioxidant defenses at glutamatergic synapses. […] We conducted a preliminary study to test the hypothesis that L-carnosine, an antioxidant and anti-glycation agent which is co-localized and released with glutamate would improve executive dysfunction, a cognitive domain associated with glutamate. Seventy-five symptomatically stable adults with chronic schizophrenia were randomly assigned to L-carnosine as adjunctive treatment (2 g/day) or a matched placebo in a double-blind manner for 3 months. […] The recommended dosage is 4-6 ml of the exemplary composition of the topical composition illustrated above four times a day applied to all four limbs.

horse fibre types = details: cited from earlier work
[5] = tested on: children with autistic spectrum disorders; details: after 8 weeks, P<0.05; cited from earlier work

Structure (SMILES): NCCC(=O)N[C@@H](Cc1c[nH]cn1)C(=O)O [carnosine, β-alanyl-L-histidine]
- pK of the carboxylic function [1]: 2.6
- amount of brain tissue involved in experimentally-produced strokes (mice): significantly reduced
- Ca^2+ sensitivity [2]: significant increase
- Ca^2+ release from the sarcoplasmic reticulum [3]: did not affect
- Ca^2+ sensitivity of the contractile components [3]: increase
- perseverative errors on the strategic target detection test [4]: fewer perseverative errors
- strategic efficiency on the strategic target detection test [4]: significantly improved
- contribution to buffering (horse fibre types; type I fibres): about 20%
- contribution to buffering (horse fibre types; type IIb fibres): up to 46%
- Gilliam Autism Rating Scale (total score and Behavior, Socialization, Communication subscales) [5]: statistically significant improvements
- Receptive One-Word Picture Vocabulary test [5]: statistically significant improvements
